Experimental data as given in PMC12655637, “Design, Synthesis, and Mechanistic Study of Novel Ciprofloxacin/Thiazole Chalcone Hybrids as Potential Anticancer Agents” (Pharmaceuticals, 2025).

Experiments:
Experiment in all cases: NCI-60 screening, one-dose (10 µM) and five-dose, SRB
[1] = test system: HL-60(TB); format: cell-based, human; settings: Homo sapiens, HL-60, 10 μM; HL-60(TB), Leukemia; read-out: Growth percentage
[2] = test system: SR; format: cell-based, human; settings: 10 μM, Leukemia
[3] = test system: EKVX; format: cell-based, human; settings: Homo sapiens, 10 μM, Non-Small-Cell Lung Cancer, read-out: Growth percentage
[4] = test system: HOP-62; format: cell-based, human; settings: Homo sapiens, HOP-62, 10 μM; HOP-62, Non-Small-Cell Lung Cancer; read-out: Growth percentage
[5] = test system: NCI-H23; format: cell-based, human; settings: Homo sapiens; 10 μM; NCI-H23, Non-Small-Cell Lung Cancer; read-out: Growth percentage
[6] = test system: NCI-H460; format: cell-based, human; settings: Homo sapiens, NCI-H460, 10 μM; NCI-H460, Non-Small-Cell Lung Cancer; read-out: Growth percentage
[7] = test system: NCI-H522; format: cell-based, human; settings: Homo sapiens; 10 μM; NCI-H522, Non-Small-Cell Lung Cancer; read-out: Growth percentage
[8] = test system: HCC-2998; format: cell-based, human; settings: Homo sapiens; 10 μM; HCC-2998, Colon Cancer; read-out: Growth percentage
[9] = test system: HT29; format: cell-based, human; settings: Homo sapiens, HT-29; 10 μM; HT29, Colon Cancer; read-out: Growth percentage
[10] = test system: KM12; format: cell-based, human; settings: Homo sapiens, KM12, 10 μM; KM12, Colon Cancer; read-out: Growth percentage
[11] = test system: SW-620; format: cell-based, human; settings: Homo sapiens; 10 μM; SW-620, Colon Cancer; read-out: Growth percentage
[12] = test system: SNB-19; format: cell-based; settings: Homo sapiens; 10 μM; SNB-19, CNS Cancer; read-out: Growth percentage
[13] = test system: LOX IMVI; format: cell-based, human; settings: Homo sapiens, 10 μM, Melanoma, read-out: Growth percentage
[14] = test system: M14; format: cell-based, human; settings: Homo sapiens; 10 μM; M14, Melanoma; read-out: Growth percentage
[15] = test system: MDA-MB-435; format: cell-based; settings: Homo sapiens, MDA-MB-435, read-out: Growth percentage, 10 μM; MDA-MB-435, Melanoma
[16] = test system: SK-MEL-5; format: cell-based, human; settings: Homo sapiens; 10 μM; SK-MEL-5, Melanoma; read-out: Growth percentage
[17] = test system: OVCAR-3; format: cell-based; settings: Homo sapiens; 10 μM; OVCAR-3, Ovarian Cancer; read-out: Growth percentage
[18] = test system: OVCAR-5; format: cell-based, human; settings: 10 μM; OVCAR-5, Ovarian Cancer
[19] = test system: SK-OV-3; format: cell-based, human; settings: Homo sapiens; 10 μM; SK-OV-3, Ovarian Cancer; read-out: Growth percentage
[20] = test system: A498; format: cell-based; settings: Homo sapiens, A498, 10 μM; A498, Renal Cancer; read-out: Growth percentage
[21] = test system: ACHN; format: cell-based, human; settings: Homo sapiens, 10 μM, Renal Cancer, read-out: Growth percentage
[22] = test system: CAKI-1; format: cell-based; settings: Homo sapiens; 10 μM; CAKI-1, Renal Cancer; read-out: Growth percentage
[23] = test system: SN12C; format: cell-based, human; settings: Homo sapiens, 10 μM, Renal Cancer, read-out: Growth percentage
[24] = test system: TK-10; format: cell-based, human; settings: Homo sapiens; 10 μM; TK-10, Renal Cancer; read-out: Growth percentage
[25] = test system: PC-3; format: cell-based, human; settings: Homo sapiens; 10 μM; PC-3, Prostate Cancer; read-out: Growth percentage
[26] = test system: DU-145; format: cell-based, human; settings: Homo sapiens; 10 μM; DU-145, Prostate Cancer; read-out: Growth percentage
[27] = test system: MDA-MB231/ATCC; format: cell-based; settings: 10 μM; MDA-MB231/ATCC, Breast Cancer
[28] = test system: HS 578T; format: cell-based, human; settings: Homo sapiens, 10 μM, Breast Cancer, read-out: Growth percentage
[29] = test system: BT-549; format: cell-based; settings: Homo sapiens; 10 μM; BT-549, Breast Cancer; read-out: Growth percentage
[30] = test system: T-47D; format: cell-based, human; settings: 10 μM, Breast Cancer
[31] = test system: MDA-MB-468; format: cell-based, human; settings: Homo sapiens, MDA-MB-468, 10 μM; MDA-MB-468, Breast Cancer; read-out: Growth percentage
Source text: Control cells Test cells FLD
available usually at NCI library.
An aliquot of frozen drug concentrate is […]

| SMILES | activity at 10 µM [1] | Growth percentage [2] | activity at 10 µM [3] | activity at 10 µM [4] | activity at 10 µM [5] | activity at 10 µM [6] | activity at 10 µM [7] | activity at 10 µM [8] | activity at 10 µM [9] | activity at 10 µM [10] | activity at 10 µM [11] | activity at 10 µM [12] | activity at 10 µM [13] | activity at 10 µM [14] | activity at 10 µM [15] | activity at 10 µM [16] | activity at 10 µM [17] | Growth percentage [18] | activity at 10 µM [19] | activity at 10 µM [20] | also measured |
| --- | --- | --- | --- | --- | --- | --- | --- | --- | --- | --- | --- | --- | --- | --- | --- | --- | --- | --- | --- | --- | --- |
| COc1ccc(/C=C/C(=O)c2sc(SCC(=O)N3CCN(c4cc5c(cc4F)c(=O)c(C(=O)O)cn5C4CC4)CC3)nc2C)cc1 [Compound 4j, (E)-1-Cyclopropyl-6-fluoro-7-(4-(2-((5-(3-(4-methoxyphenyl)acryloyl)-4-methylthiazol-2-yl)thio)acetyl)piperazin-1-yl)-4-oxo-1,4-dihydroquinoline-3-carboxylic Acid] | 101% | 88.9% | 103% | 98.3% | 102% | 106% | 99% | 100% | 108% | 112% | 123% | 103% | 97.9% | 109% | 108% | 99.7% | 174% | 110.0% | 115% | 117% | activity at 10 µM [21]: 97.4%; activity at 10 µM [22]: 94.9%; activity at 10 µM [23]: 96.2%; activity at 10 µM [24]: 102%; activity at 10 µM [25]: 107%; activity at 10 µM [26]: 113%; Growth percentage [27]: 94.8%; activity at 10 µM [28]: 96.4%; activity at 10 µM [29]: 102%; Growth percentage [30]: 94.7%; activity at 10 µM [31]: 107% |
| Cc1nc(SCC(=O)N2CCN(c3cc4c(cc3F)c(=O)c(C(=O)O)cn4C3CC3)CC2)sc1C(=O)/C=C/c1cccc([N+](=O)[O-])c1 [Compound 4g, (E)-1-Cyclopropyl-6-fluoro-7-(4-(2-((4-methyl-5-(3-(3-nitrophenyl)acryloyl)thiazol-2-yl)thio)acetyl)piperazin-1-yl)-4-oxo-1,4-dihydroquinoline-3-carboxylic Acid] | 80.5% | 11.6% | 111% | 94.5% | 87.8% | 106% | 72.3% | 50.3% | 37.2% | 21.7% | 69.8% | 87.7% | 34.2% | 83.3% | 71.9% | 81.7% | 163% | 119.9% | 121% | 129% | activity at 10 µM [21]: 110%; activity at 10 µM [22]: 92.6%; activity at 10 µM [23]: 65.4%; activity at 10 µM [24]: 109%; activity at 10 µM [25]: 112%; activity at 10 µM [26]: 108%; Growth percentage [27]: 92.4%; activity at 10 µM [28]: 99.1%; activity at 10 µM [29]: 66.9%; Growth percentage [30]: 84.1%; activity at 10 µM [31]: 92.8% |
